This experiment has as its system HUVEC primary endothelial cells. Nature of the experiment: HUVEC proliferation assay (CyQUANT Direct). In kind it is cell-based. The conditions noted are these: Homo sapiens, 72 h, 3 days incubation. As for the experimental part:
HUVEC Proliferation Assay
Proliferation of HUVEC primary endothelial cells was used as cell-based mechanistical assay.^25 Applying the CyQUANT@ Direct Cell Proliferation Assay (Invitrogen C35011) which is based on a cell-permeant fluorescent DNA-binding dye, DNA content is used as a direct measure for cell number. Pooled HUVEC cells (Promocell C-12203) are cultivated in the medium supplied by Promocell (Cat No C-22020) for maximum 4 passages. For the assay 500 cells/well are seeded into black 384-well culture plates with clear bottom in 70 μl culture medium and incubated for 6 hours at 37° C., 5% CO2. 10 μl prediluted test compounds are added and cells incubated for 3 days at 37° C., 5% CO2 before measurement of DNA content. CyQUANT detection reagent is prepared according to the manufacturers protocol, 20 μl/well added and incubated at 37° C., 5% CO2 for at least 1 h before measurement of fluorescence at Envision multimode reader (Perkin-Elmer, Waltham) with excitation 480 nm and emission 535 nm (bottom read mode). The assay is performed as dose response with 10 compound dilutions. Inhibitory values (IC50) were determined using the program ASSAY ANALYZER® from GeneData (Basel, Switzerland).

Experimental findings from US20220062258A1, “Heterocyclic derivatives” (Merck Patent GmbH, priority 2019, published 2022) are described below.

A word on the IC50: it is the midpoint of a concentration-inhibition curve. A higher IC50 goes with weaker potency in that assay.

Bounds are passed on as bounds.

The molecule `O=C1CCC(N2C(=O)c3ccc(NCCOCCOCCN4CCC5(CC4)CCN(C(=O)c4cc6cc(N7CC[C@](O)(C(=O)NCc8cc(F)cc(F)c8)C7=O)ccc6[nH]4)CC5)cc3C2=O)C(=O)N1` (stereo partly drawn) [Compound A49, (3S)—N-[(3,5-difluorophenyl)methyl]-1-[2-(9-{2-[2-(2-{[2-(2,6-dioxopiperidin-3-yl)-1,3-dioxo-2,3-dihydro-1H-isoindol-5-yl]amino}ethoxy)ethoxy]ethyl}-3,9-diazaspiro[5.5]undecane-3-carbonyl)-1H-indol-5-yl]-3-hydroxy-2-oxopyrrolidine-3-carboxamide] showed an IC50 of 51 nM.
With `O=C1CCC(N2C(=O)c3ccc(NC(=O)CCCCCCCCCCCCCNC(=O)c4cc5cc(N6CC[C@](O)(C(=O)NCc7cc(F)cc(F)c7)C6=O)ccc5[nH]4)cc3C2=O)C(=O)N1` (stereo partly drawn) [Compound A50, (3S)—N-[(3,5-difluorophenyl)methyl]-1-{2-[(13-{[2-(2,6-dioxopiperidin-3-yl)-1,3-dioxo-2,3-dihydro-1H-isoindol-5-yl]carbamoyl}tridecyl)carbamoyl]-1H-indol-5-yl}-3-hydroxy-2-oxopyrrolidine-3-carboxamide], the half-inhibitory concentration (IC50) amounted to 180 nM.
Turning to `O=C1CCC(N2C(=O)c3ccc(NCCCCOCCCCOCCCCNC(=O)c4cc5cc(N6CC[C@](O)(C(=O)NCc7cc(F)cc(F)c7)C6=O)ccc5[nH]4)cc3C2=O)C(=O)N1` (stereo partly drawn) [Compound A51, 5-[(3S)-3-{[(3,5-difluorophenyl)methyl]carbamoyl}-3-hydroxy-2-oxopyrrolidin-1-yl]-N-{4-[4-(4-{[2-(2,6-dioxopiperidin-3-yl)-1,3-dioxo-2,3-dihydro-1H-isoindol-5-yl]amino}butoxy)butoxy]butyl}-1H-indole-2-carboxamide], the midpoint of inhibition, the IC50, lay at 400 nM.
The value for `O=C1CCC(N2C(=O)c3ccc(OCCOCCOCCOCCOCCNC(=O)c4cc5cc(N6CC[C@](O)(C(=O)NCc7cc(F)cc(F)c7)C6=O)ccc5[nH]4)cc3C2=O)C(=O)N1` (stereo partly drawn) [Compound A52, 5-[(3S)-3-{[(3,5-difluorophenyl)methyl]carbamoyl}-3-hydroxy-2-oxopyrrolidin-1-yl]-N-(14-{[2-(2,6-dioxopiperidin-3-yl)-1,3-dioxo-2,3-dihydro-1H-isoindol-5-yl]oxy}-3,6,9,12-tetraoxatetradecan-1-yl)-1H-indole-2-carboxamide] was 4900 nM; that for `O=C1CCC(N2C(=O)c3ccc(NC(=O)COCCOCCOCCOCCOCCNC(=O)c4cc5cc(N6CC[C@](O)(C(=O)NCc7cc(F)cc(F)c7)C6=O)ccc5[nH]4)cc3C2=O)C(=O)N1` (stereo partly drawn) [Compound A55, (3S)—N-[(3,5-difluorophenyl)methyl]-1-{2-[(1-{[2-(2,6-dioxopiperidin-3-yl)-1,3-dioxo-2,3-dihydro-1H-isoindol-5-yl]carbamoyl}-2,5,8,11,14-pentaoxahexadecan-16-yl)carbamoyl]-1H-indol-5-yl}-3-hydroxy-2-oxopyrrolidine-3-carboxamide] was > 30000 nM.
The value for `O=C1CCC(N2C(=O)c3cccc(NCCOCCOCCOCCOCCN4CCN(C(=O)c5cc6cc(N7CC[C@](O)(C(=O)NCc8cc(F)cc(F)c8)C7=O)ccc6[nH]5)CC4)c3C2=O)C(=O)N1` (stereo partly drawn) [Compound A56, (3S)—N-[(3,5-difluorophenyl)methyl]-1-{2-[4-(14-{[2-(2,6-dioxopiperidin-3-yl)-1,3-dioxo-2,3-dihydro-1H-isoindol-4-yl]amino}-3,6,9,12-tetraoxatetradecan-1-yl)piperazine-1-carbonyl]-1H-indol-5-yl}-3-hydroxy-2-oxopyrrolidine-3-carboxamide] was 120 nM; that for `O=C1CCC(N2C(=O)c3cccc(NC(=O)CCCCCCCCCCCCCCCCNC(=O)c4cc5cc(N6CC[C@](O)(C(=O)NCc7cc(F)cc(F)c7)C6=O)ccc5[nH]4)c3C2=O)C(=O)N1` (stereo partly drawn) [Compound A57, (3S)—N-[(3,5-difluorophenyl)methyl]-1-{2-[(16-{[2-(2,6-dioxopiperidin-3-yl)-1,3-dioxo-2,3-dihydro-1H-isoindol-4-yl]carbamoyl}hexadecyl)carbamoyl]-1H-indol-5-yl}-3-hydroxy-2-oxopyrrolidine-3-carboxamide] was > 30000 nM.
